# Test results taken from patent publication US20110294144A1, “SCREENING METHOD” (priority 2008, published 2011).
# Experiments:
# PRKX [1] = target: T1, PRKX (Homo sapiens, UniProt P51817); assay: Western blot of S214 phosphorylated tau in H4-tau cells transfected with PRKX expression plasmid; type: cell-based; parameters: using change-1F and hPRKX-1R as primers to give mutant PRKX full-length DNA; expressed in transfected cells; host or cells: H4-tau cells (human H4 neuroglial cells stably expressing human tau), transiently transfected with pPRKXkai (pTARGET vector); settings: 10 μM H-89 added 2 hr before cell recovery
# T1 sequence (P51817 1-358): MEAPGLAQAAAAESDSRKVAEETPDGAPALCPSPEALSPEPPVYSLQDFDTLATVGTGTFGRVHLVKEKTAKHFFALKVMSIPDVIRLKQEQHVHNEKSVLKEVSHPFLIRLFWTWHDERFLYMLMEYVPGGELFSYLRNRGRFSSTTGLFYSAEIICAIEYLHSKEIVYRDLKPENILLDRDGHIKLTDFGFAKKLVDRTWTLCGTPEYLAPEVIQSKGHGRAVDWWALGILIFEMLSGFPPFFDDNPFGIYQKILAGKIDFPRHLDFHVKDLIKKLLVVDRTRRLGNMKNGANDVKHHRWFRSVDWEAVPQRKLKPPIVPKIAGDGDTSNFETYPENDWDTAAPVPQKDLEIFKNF
# Method: pFB-Neo-CMV-tau plasmid obtained by inserting a DNA fragment containing a wild-type human tau gene bound at the downstream of a CMV promoter into a multicloning site of pFB-neo vector (Stratagene) was transferred into H4 neuroglial cells according to the instructions of ViraPort(R) Retroviral Gene Expression System (Stratagene), and a cell confirmed to show expression of tau was used as a H4-tau cell. […] After transcription to a PVDF membrane, Western blot was performed using, as a primary antibody, an anti-S214 phosphorylated tau antibody (BioSource) for the detection of S214 phosphorylated tau, an Ab-3 antibody (Lab Vision) for the detection of total tau, and […], and according to the instructions of ECL Advance Western Blotting Detection Kit (Amarsham Bioscience), and each protein was detected by LAS-1000 plus lumino image analyzer (Fujifilm). […] The tranfected cell was dissolved in a cell lysis buffer (BioSource), the amount of S214 phosphorylated tau was measured using a human pS214 tau ELISA kit (BioSource), the amount of total tau was measured using a human total tau ELISA kit (BioSource), each according to the instructions, and the amount of phosphorylated tau in the total tau was examined. […]
# PRKX [2] = target: T1, PRKX; assay: Cell-free tau S214 phosphorylation by recombinant PRKX protein, Western blot; type: biochemical; parameters: purchased Invitrogen; settings: 30° C., 60 min
# Method: To a reaction mixture (40 mM Tris-HCl (pH 7.5), 20 mM MgCl2, 0.1 mg/ml BSA, 25 μl) containing recombinant PRKX protein (Invitrogen, 4 μg/ml) and recombinant tau protein (Wako Pure Chemical Industries, Ltd., 40 μg/ml) was added H-89 solution (40 mM Tris-HCl (pH 7.5), 0.1% DMSO, 20 mM MgCl2, 0.1 mg/ml BSA, 5 μl) to a concentration during reaction of 1 or 0.1 μM. As a control, 40 mM Tris-HCl (pH 7.5), 0.1% DMSO, 20 mM MgCl2, 0.1 mg/ml BSA solution (5 μl) were added. 25 μM ATP solution (40 mM Tris-HCl (pH 7.5), 20 mM MgCl2, 0.1 mg/ml BSA) was added by 20 μl to start the reaction and the mixture was left standing at 30° C. for 60 min. An SDS sample buffer was added to quench the reaction, the protein was separated using NuPAGE 4-12% Bis-Tris gel and transferred to a PVDF membrane. Western blot was performed using an anti-S214 phosphorylated tau antibody as a primary antibody and ECL Advance Western Blotting Detection Kit, and S214 phosphorylated tau was quantified by LAS-1000 plus lumino image analyzer. […] By the addition of H-89 at a final concentration of 1 and 0.1 μM, the tau S214 phosphorylation reaction decreased to 5% and 52%, respectively, of that without the addition.
# [3] = tested on: mouse primary nerve cells infected with PRKX overexpression lentivirus; assay: Neurite elongation (MAP2 staining) in mouse primary nerve cells infected with PRKX overexpression lentivirus; type: cell-based; settings: DIV14 mouse primary nerve cells, PRKX lentivirus MOI=2, forskolin 10 μM 2 days
# Method: DIV14 mouse primary nerve cells were plated in a 48 well plate at a concentration of 3.5×10^3 cells/well and infected with PRKX or D172A overexpression lentivirus at MOI=2. Four days after the infection, forskolin was added at a concentration of 10 μM, and the cells were cultured for 2 days. The cells were fixed, nerve cell was labeled with anti-MAP2 monoclonal antibody as a primary antibody, anti-MAP2 antibody was stained with anti-mouse Alexa Fluor 488-labeled secondary antibody, and they were photographed by Discovery-1. The neurite elongation was measured by a metamorph software based on the images taken by Discovery-1. As a result, the decrease of the neurite elongation found with the PRKX overexpression lentivirus was suppressed by 76% by H-89.
# PRKX [4] = target: T1, PRKX; settings: non-patent document 3; cited from earlier work
# [5] = tested on: H4 cells infected with PRKX overexpression lentivirus; assay: Cell death (DAPI positive cell count) in H4 cells infected with PRKX overexpression lentivirus; type: cell-based, human; settings: PRKX lentivirus MOI=1
# Method: H4 cells were plated in a 48 well plate at a concentration of 3.5×10^3 cells/well and, the next day, infected with PRKX or lacZ overexpression lentivirus at MOI=1. Two days later, H-89 was added at 3 or 10 μM. The next day, the cells were fixed, and the nucleus was stained with DAPI. DAPI positive cells were photographed by Discovery-1, and the number of DAPI positive cells was counted from the images by a Metamorph software. […] The cell death was suppressed by 29% or 46% by the addition of 3 μM or 10 μM H-89.
# [6] = tested on: mouse primary nerve cells infected with PRKX overexpression lentivirus; assay: Immunostaining of S214 phosphorylated tau in mouse primary nerve cells infected with PRKX overexpression lentivirus; type: cell-based; settings: DIV12 mouse primary nerve cells, PRKX lentivirus MOI=2
# Description: DIV12 mouse primary nerve cells plated in a 48 well plate at a concentration of 3.5×10^3 cells/well were infected with PRKX overexpression lentiviruses at MOI=2. Two days later, the cells were fixed with 4% para-formaldehyde, washed with phosphate buffer, and blocked with a phosphate buffer containing 1.5% BSA and 0.1% Triton X-100. Thereafter, as a primary antibody, an anti-S214 phosphorylated tau antibody was used to label phosphorylated tau, and an anti-MAP2 monoclonal antibody (Chemicon International) was used to label nerve cells. After washing, anti-S214 phosphorylated tau antibody was stained with anti-rabbit alexafluoro594-labeled secondary antibody, and anti-MAP2 antibody was stained with anti-mouse alexafluoro488-labeled secondary antibody (Invitrogen), and they were photographed using Discovery-1. As a result, the amount of tau S214 phosphorylation decreased due to H-89.
# PRKX [7] = target: T1, PRKX; assay: pS214 tau / total tau ELISA in PRKX-transfected H4-tau cells; type: cell-based; parameters: using change-1F and hPRKX-1R as primers to give mutant PRKX full-length DNA; expressed in transfected cells; host or cells: H4-tau cells (human H4 neuroglial cells stably expressing human tau), transiently transfected with pPRKXkai (pTARGET vector); settings: H-89 10-0.1 μM, 2 hr, pPRKXkai, read-out: IC50 of suppression of the amount of tau S214 phosphorylation (ELISA, phosphorylated tau in total tau)
# Method: pPRKXkai and pTARGET vectors were each transferred into H4-tau cells cultured overnight in a DMEM medium containing 10% FBS, using a Fugene6 transfection reagent. One day later, H-89 was added at a concentration of 10-0.1 μM. 2 hr later, the cells were dissolved in a cell lysis buffer, the amount of S214 phosphorylated tau was measured using a human pS214 tau ELISA kit, the amount of the total tau was measured using a human total tau ELISA kit, and the amount of phosphorylated tau in the total tau was examined. As a result, the amount of tau S214 phosphorylation was suppressed at an IC50 value of 0.7 μM.
# PRKX [8] = target: T1, PRKX; assay: In-cell infrared fluorescence imaging (Odyssey) of S214 phosphorylated tau and total tau in PRKX-transfected H4-tau cells; type: cell-based; parameters: using change-1F and hPRKX-1R as primers to give mutant PRKX full-length DNA; expressed in transfected cells; host or cells: H4-tau cells (human H4 neuroglial cells stably expressing human tau), transiently transfected with pPRKXkai (pTARGET vector); settings: H-89 10-0.1 μM, 2 hr; H4-tau cells in 96 well plate, pPRKXkai; read-out: IC50 of suppression of the amount of tau S214 phosphorylation (infrared fluorescence imaging)
# Method: H4-tau cells were plated in a DMEM medium containing 10% FBS in a 96 well plate at a concentration of 1×10^4 cells/well and, the next day, pPRKXkai and pTARGET vectors were each transferred thereinto using a Fugene6 transfection reagent. One day later, H-89 was added to the medium at a concentration of 10−0.1 μM. 2 hr later, the cells were fixed with 4% para-formaldehyde (Wako Pure Chemical Industries, Ltd.), washed with phosphate buffer, and blocked with phosphate buffer containing 1.5% BSA (Sigma Aldrich) and 0.1% Triton X-100 (Wako Pure Chemical Industries, Ltd.). Thereafter, as a primary antibody, an anti-S214 phosphorylated tau antibody was used to label phosphorylated tau and an anti-tau monoclonal antibody HT-7 (Pierce Biotechnology) was used to label total tau. After washing, they were reacted with an anti-rabbit Alexa Fluor 680-labeled secondary antibody (Invitrogen) and an anti-mouse IRD800CW-labeled secondary antibody (Wako Pure Chemical Industries, Ltd.), as secondary antibodies. After washing, the amounts of S214 phosphorylated tau and total tau were detected using 2 fluorescence system infrared fluorescence Imager Odyssey (ALOKA CO., LTD.). As a result, the amount of tau S214 phosphorylation was suppressed at an IC50 value of 0.7 μM.
# [9] = tested on: H4-tau cells infected with PRKX overexpression lentivirus; assay: Thioflavin S positive cell count (tau aggregation) in H4-tau cells infected with PRKX overexpression lentivirus; type: cell-based, human; settings: 3 μM H-89, added three days after infection; PRKX lentivirus MOI=2.5
# Method: H4-tau cells were plated in a 24 well plate at a concentration of 1×10^5 cells/well and, the next day, infected with PRKX or lacZ overexpression lentivirus at MOI=1 or 2.5. Three days later, H-89 was added to a concentration of 3 μM. The next day, the cells fixed with 4% para-formaldehyde were washed with phosphate buffer, and blocked with phosphate buffer containing 1.5% BSA and 0.1% Triton X-100. Thereafter, the cells were stained by using S214 phosphorylated tau, and anti-S214 phosphorylated tau or total tau antibody as a primary antibody and anti-rabbit Alexa Fluor 594-labeled secondary antibody as a secondary antibody. Thereafter, the cells were left standing in 0.005% aqueous thioflavin S (Sigma Ltd.) solution for 5 min, and washed twice with 70% ethanol and once with water. Furthermore, the nucleus was stained with DAPI. The stained cells were photographed by Discovery-1, and the number of DAPI positive cells and the number of thioflavin S positive cells were counted by metamorph software (Molecular Device) based on the images taken by Discovery-1. In the PRKX infected well, the number of cells stained with thioflavin S having a β sheet structure increased 2-fold at MOI=1 and 5.2-fold at MOI=2.5 as compared to lacZ infected well. By containing with a tau specific antibody, almost all thioflavin S positive images were contained with tau and S214 phosphorylated tau. […]
smiles,measurement,setting,value
O=S(=O)(NCCNC/C=C/c1ccc(Br)cc1)c1cccc2cnccc12 [H-89],enhanced S214 phosphorylation of tau (Western blot),PRKX [1],enhanced phosphorylation was not found
same,"tau S214 phosphorylation reaction, % of that without the addition",PRKX [2]; H-89 final concentration 0.1 μM,52%
same,"tau S214 phosphorylation reaction, % of that without the addition",PRKX [2]; H-89 final concentration 1 μM,5%
same,suppression of the decrease of the neurite elongation,[3],76%
same,inhibition of PRKX,PRKX [4],inhibit PRKX
same,suppression of cell death,[5]; 3 μM H-89,29%
same,suppression of cell death,[5]; 10 μM H-89,46%
same,amount of tau S214 phosphorylation,[6],decreased
same,IC50,PRKX [7],700 nM
same,IC50,PRKX [8],700 nM
same,suppression of the increase of thioflavin S stained cells,[9],75%
